Values after ≈ are worked out from the molar mass of the structure shown. Where two headings read alike, the source gives them in different places.
How the values were obtained:
[1] = Solubility of busulfan in various solvents; type: physicochemical
From the text: The solvents chosen for the impregnation are those in which busulfan has appreciable solubility (acetone, acetonitrile, chloroform, dichloromethane, dimethyl carbonate) (Table 18).

[2] = cited from earlier work

CS(=O)(=O)OCCCCOS(C)(=O)=O [busulfan, 1,4-butanediol dimethylsulfonate]
Busulfan solubility ([1]; Chloroform): 8 mg/mL
Busulfan solubility ([1]; Ethanol): <<<4 mg/ml
Busulfan solubility ([1]; Ether): <<<4 mg/ml
Busulfan solubility ([1]; Hexane): <<<4 mg/ml
Busulfan solubility ([1]; Methanol): <<<4 mg/ml
Busulfan solubility ([1]; Tetrahydrofuran): ~5 mg/mL
Busulfan solubility ([1]; Toluene): ~4 mg/mL

Nc1ccn([C@@H]2O[C@H](CO)[C@@H](O)C2(F)F)c(=O)n1 [Gemcitabine]
Solubility in water [2]: water soluble

CC(=O)O[C@H]1C(=O)[C@@]2(C)[C@H]([C@H](OC(=O)c3ccccc3)[C@]3(O)C[C@H](OC(=O)[C@H](O)[C@@H](NC(=O)c4ccccc4)c4ccccc4)C(C)=C1C3(C)C)[C@]1(OC(C)=O)CO[C@@H]1C[C@@H]2O [Paclitaxel]
Solubility in ethanol and in DMSO ([2]; ethanol, DMSO): about 50 g/L

NC(N)=O [Urea]
Solubility in water ([2]; 20° C.): 1080 mg/mL (≈ 18000 mM)

Source: patent publication US10738068B2, “Organic/inorganic hybrid nanoparticulates made from iron carboxylates” (CENTRE NATIONAL DE LA RECHERCHE SCIENTIFIQUE—CNRS, priority 2007, dated 2020)
